Source: patent US20200288710A1, “SUBSTITUTED SULPHONAMIDES FOR CONTROLLING ANIMAL PESTS” (BAYER CROPSCIENCE AKTIENGESELLSCHAFT, priority 2016, published 2020)

Assays:
Assay type in all cases: in vivo
[1] = test system: Phaedon cochleariae; test: Phaedon cochleariae spray test; settings: foliar, 168 h, Chinese cabbage leaf discs, larvae, after 7 days, read-out: efficacy
Method: Phaedon cochleariae—Spray Test
To produce a suitable preparation of active compound, 1 part by weight of active compound is dissolved using the specified parts by weight of solvent and made up with water containing an emulsifier concentration of 1000 ppm until the desired concentration is attained. To produce further test concentrations, the formulation is diluted with emulsifier-containing water.
After 7 days, the efficacy in % is determined. 100% means that all the beetle larvae have been killed; 0% means that no beetle larvae have been killed.

[2] = test system: Myzus persicae; test: Myzus persicae spray test (Chinese cabbage leaf discs); settings: foliar, 120 h, 500 g/ha, after 5-6 days, read-out: efficacy
How it was run: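 Formulated compound in acetone/dimethylformamide, diluted in water with 1000 ppm emulsifier, was sprayed onto Brassica pekinensis leaf discs carrying mixed-stage Myzus persicae. Percent mortality was read 5-6 days later (0% = no aphids killed, 100% = all killed).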

[3] = test system: Myzus persicae; test: Myzus persicae oral test; settings: 120 h, oral uptake, after 5 days, read-out: efficacy
How it was run: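 Aphids of mixed ages imbibe, through parafilm, compound solution (acetone stock, water-diluted) combined with sugar-supplemented IPL41 medium to 200 μl. Efficacy read at day 5 as percent killed, 0% meaning no deaths.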

[4] = test system: Meloidogyne incognita; test: Meloidogyne incognita test; settings: 336 h, lettuce, after 14 days, read-out: nematicidal efficacy (formation of galls)
How it was run: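 Gall formation on lettuce roots scored after 14 days: 0% means gall count equals untreated control, 100% means none. Sand vessels held the compound (acetone concentrate diluted in water), southern root-knot nematode egg/larvae suspension and lettuce seeds.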

[5] = test system: Lucilia cuprina; test: Lucilia cuprina test; settings: 48 h, L1 larvae, after 2 days, read-out: efficacy (kill in %)
Method: Lucilia cuprina Test Solvent: dimethyl sulphoxide To produce a suitable preparation of active compound, 10 mg of active compound are mixed with 0.5 ml of dimethyl sulphoxide, and the concentrate is diluted with water to the desired concentration. About 20 L1 larvae of the Australian sheep blowfly (Lucilia cuprina) are transferred into a test vessel containing minced horsemeat and the active compound preparation of the desired concentration. After 2 days, the kill in % is determined. 100% means that all the larvae have been killed; 0% means that no larvae have been killed.

Row | Structure (SMILES) | pest or weed control at 500 g/ha [1] | pest or weed control at 500 g/ha [2] | pest or weed control at 20 ppm [3] | pest or weed control at 20 ppm [4] | pest or weed control at 100 ppm [5] | pest or weed control at 4 ppm ([3]; 4 ppm)
1 | Cn1cc(C(=O)NS(=O)(=O)c2c(Br)cccc2C(F)(F)F)nc1-c1c(F)cccc1F [Example 373] | 100% | 100% | 100% | 90% |  | 
2 | CCc1cccc(OC(F)F)c1S(=O)(=O)NC(=O)c1cn(C)c(-c2c(F)cccc2F)n1 [Example 339] | 100% | 90% | 100% | 100% |  | 
3 | COc1ccc(C)c(S(=O)(=O)NC(=O)c2cn(C)c(-c3ccccc3Cl)n2)c1 [Example 424] | 100% | 90% | 100% | 90% |  | 
4 | Cc1ccccc1S(=O)(=O)NC(=O)c1cn(C)c(-c2sccc2Cl)n1 [Example 548] | 83% | 90% | 90% | 90% |  | 
5 | Cn1cc(C(=O)NS(=O)(=O)c2ccccc2Cl)nc1-c1ncccc1Cl [Example 539] |  | 90% | 100% |  | 100% | 
6 | CSc1ccccc1S(=O)(=O)NC(=O)c1cn(C)c(-c2c(F)cccc2F)n1 [Example 383] | 100% | 100% | 100% |  | 100% | 
7 | Cc1ccccc1S(=O)(=O)NC(=O)c1cn(C)c(-c2cc(Cl)ccc2Cl)n1 [Example 517] | 100% | 90% | 100% | 100% |  | 
8 | Cc1cc(C(=O)NS(=O)(=O)c2c(Cl)cccc2Cl)nn1-c1ccccc1Cl [Example 269] | 83% | 100% | 100% | 100% |  | 
9 | Cc1cccc(C(F)(F)F)c1S(=O)(=O)NC(=O)c1cn(C)c(-c2ncccc2Cl)n1 [Example 586] | 100% | 100% |  | 90% |  | 100%
10 | Cn1cc(C(=O)NS(=O)(=O)c2ccccc2Cl)nc1-c1c(Cl)cccc1Cl [Example 100] | 100% | 100% | 100% | 90% |  | 
11 | Cc1ccccc1S(=O)(=O)NC(=O)c1cn(C)c(-c2ccccc2Cl)n1 [Example 54] |  | 100% | 100% | 100% | 100% | 
12 | Cn1cc(C(=O)NS(=O)(=O)c2ccccc2C(F)(F)F)nc1-c1c(F)cccc1Cl [Example 109] |  | 100% | 100% | 90% | 100% | 
13 | Cc1ccc(C(F)(F)F)cc1S(=O)(=O)NC(=O)c1cn(C)c(-c2c(F)cccc2F)n1 [Example 399] | 100% | 100% | 100% | 90% |  | 
14 | Cc1ccc(F)cc1S(=O)(=O)NC(=O)c1cn(C)c(-c2ccccc2Cl)n1 [Example 425] | 100% | 100% | 100% | 90% |  | 
15 | Cn1cc(C(=O)NS(=O)(=O)c2ccccc2I)nc1-c1ccccc1Cl [Example 428] | 100% | 100% | 100% | 90% |  | 
16 | Cc1cc(C)c(S(=O)(=O)NC(=O)c2cn(C)c(-c3c(F)cccc3F)n2)c(C)c1 [Example 436] | 100% | 90% | 100% | 90% |  | 
17 | CCc1cccc(F)c1S(=O)(=O)NC(=O)c1cn(C)c(-c2c(F)cccc2F)n1 [Example 338] | 100% | 90% | 100% | 100% |  | 
18 | Cn1cc(C(=O)NS(=O)(=O)c2ccc(Br)cc2C(F)(F)F)nc1-c1c(F)cccc1F [Example 449] | 100% | 100% | 100% | 100% |  | 
